Assays:
Type in all cases: in vivo, mouse
[1] = test system: mice in which atopic dermatitis had been induced; experiment: Naked-eye observation of atopic dermatitis in animal model
Description: To examine treatment efficacy of hirsutenone on atopic dermatitis, the present inventors utilized an experimental animal model in which atopic dermatitis was induced by attachment of mite patch to the skin. Briefly, the patch containing a mite-derived ingredient as a human atopic dermatitis-inducing agent was applied to 5-old-week mice. The hairs of their back were partially removed and mite patch was attached. At 2-week post-application, skin damage equivalent to atopic dermatitis was observed. Mite patch was detached at 18 weeks.
In addition to NC/Nga mouse, BABL/c mouse was used as an animal model.
To examine treatment efficacy of hirsutenone on atopic dermatitis, mice in which atopic dermatitis had been induced were treated with hirsutenone through an injection or skin application for 4 weeks. Then, external skin morphology was estimated by naked-eye observation so as to determine whether a symptom of atopic dermatitis was relieved. Each group injected or applied with hirsutenone was compared to a negative control group into which hirsutenone was not administered, resulting in the improvement of a symptom of atopic dermatitis. […] FIG. 5d represents a positive control treated with dexamethasone. […] FIG. 5g represents the result of administration of plancol as positive control.
FIG. 6d represents a positive control treated with dexamethasone. […] FIG. 6g represents the result of administration of plancol as positive control.

eosinophil = experiment: Eosinophil count in blood; details: NC/Nga mice, injection or skin application for 4 weeks, after vs before administration
Procedure: Mouse blood was collected into capillary tube and 30 μl of mouse whole blood was diluted 6-fold by addition of 150 μl saline. Eosinophils were counted using a Sysmex XE-2100 hematology analyzer. Slide glass smeared with peripheral blood was prepared and stained with Wright-Giemsa. Eosinophil count was carried out by differentially counting 200 leukocytes.
NC/Nga mice in which atopic dermatitis had been induced were treated with hirsutenone through an injection or skin application for 4 weeks. Blood was collected from mice before and after administration or application of hirsutenone, and then eosinophil count was measured.

IgE = experiment: Measurement of IgE level by ELISA; details: NC/Nga mice, injection or skin application for 4 weeks, vs negative control
Procedure: (§1) Serum was prepared from blood of main artery. Lymphocytes extracted from spleen were cultured. Briefly, extracted spleen was homogenized, filtered through mesh and single cells was isolated. Red blood cells were lysed in RBC lysis buffer and the supernatant was removed by centrifugation. 1×10^6 cells were cultured in 24-well plate containing RPMI media (1 ml). The experiments were performed in media containing cells cultured for 3 days.
NC/Nga mice in which atopic dermatitis had been induced were treated with hirsutenone through an injection or skin application for 4 weeks. Blood was collected from mice and IgE expression level was measured using ELISA.

IL-4 = experiment: Measurement of IL-4 expression level by ELISA; details: NC/Nga mice, injection or skin application for 4 weeks, serum and splenocyte, vs negative control
Procedure: as §1
(§2) NC/Nga mice in which atopic dermatitis had been induced were treated with hirsutenone through an injection or skin application for 4 weeks. Blood and spleen were collected from mice and interleukin (IL)-4, IL-5, IL-10 and IL-13 expression level in serum and splenocyte were measured using ELISA. IL-4, IL-5 and IL-13 expression detected in groups of hirsutenone being injected or skin applied was much lower than those of negative control (FIG. 9a, FIG. 9b and FIG. 9c).

IL-5 = experiment: Measurement of IL-5 expression level by ELISA; details: NC/Nga mice, injection or skin application for 4 weeks, serum and splenocyte, vs negative control
Procedure: as §1, §2

IL-13 = experiment: Measurement of IL-13 expression level by ELISA; details: NC/Nga mice, injection or skin application for 4 weeks, serum and splenocyte, vs negative control
Procedure: as §1, §2

COX-2 [2] = experiment: Measurement of COX-2 expression using real-time PCR; details: NC/Nga mice, injection or skin application for 4 weeks, epidermal cells
Procedure: (§3) The primers used in Real-time PCR are as follows.
(§4) Total RNA was extracted according to the following steps. Tissue was treated with 1 ml TRIZol reagent and mixed with 200 μl chloroform. After centrifugation at 12,000 rpm for 15 min at 4° C., the supernatant was transferred into a new tube and mixed with ½ vol. of isopropanol. The mixture was again centrifuged at 12,000 rpm for 15 min at 4° C. The supernatant was discarded and total RNA was dissolved in DEPC-water.
(§5) cDNA was prepared according to the following steps. The isolated total RNA was dissolved in 30 μl DEPC-DW and reverse transcription using 3 μg of total RNA as a template was performed in a reaction mixture (20 μl) containing 1 μl of reverse transcriptase, 2 μl of 10× buffer, 2 μl of 10 mM dNTP (dNTP mix), 1 μl of oligo dT primer, 0.5 μl of RNase inhibitor and 4 μl of 25 mM MgCl2.
(§6) Each 2 μl of cDNA prepared was amplified using PCR. PCR reaction was performed by 45 cycles of 1 min at 59° C. and 1 min at 94° C. Finally, the mixtures were incubated at 72° C. for 1 min for extension.
(§7) NC/Nga mice in which atopic dermatitis had been induced were treated with hirsutenone through an injection or skin application for 4 weeks and then mice epidermal cells were collected. To investigate whether hirsutenone has a regulatory activity on immune responses, the expression levels of COX-2 and iNOS were detected using real-time PCR. […]

iNOS [3] = experiment: Measurement of iNOS expression using real-time PCR; details: NC/Nga mice, injection or skin application for 4 weeks, epidermal cells
Procedure: as §3, §4, §5, §6, §7

COX-2 [4] = experiment: Measurement of COX-2 expression level using western blotting; details: NC/Nga mice, injection or skin application for 4 weeks, epidermal cells
Procedure: (§8) Skin tissue containing epidermal cells was lysed and centrifuged using a centrifuge. The supernatant was electrophoresized on 15% SDS-PAGE (sodium dodecyl sulfate polyacrylamide gel electrophoresis). For analysis of COX-2 and iNOS, proteins separated on gel electrophoresis were transferred into a nitrocellulose membrane and sequentially incubated with a primary antibody (1:1000 in BSA, rabbit polyclonal anti-COX-2 antibody, rabbit polyclonal iNOS antibody; Chemicon, Calif., USA) and a secondary antibody (1:2000 in BSA, anti-goat IgG, anti-rabbit IgG; Chemicon, Calif., USA).
(§9) NC/Nga mice in which atopic dermatitis had been induced were treated with hirsutenone through an injection or skin application for 4 weeks and mice epidermal cells were collected. To investigate whether hirsutenone has a regulatory activity on immune responses, the expression levels of COX-2 and iNOS were detected using western blotting.

iNOS [5] = experiment: Measurement of iNOS expression level using western blotting; details: NC/Nga mice, injection or skin application for 4 weeks, epidermal cells
Procedure: as §8, §9

O=C(/C=C/CCc1ccc(O)c(O)c1)CCc1ccc(O)c(O)c1 [hirsutenone]
symptom of atopic dermatitis (naked-eye observation) ([1]; BABL/c mice, 0.1% hirsutenone by injection, vs PBS negative control): much more relieved
symptom of atopic dermatitis (naked-eye observation) ([1]; BABL/c mice, 1% hirsutenone by injection, vs PBS negative control): much more relieved
symptom of atopic dermatitis (naked-eye observation) ([1]; BABL/c mice, 1% hirsutenone ointment applied to skin, vs composition without active ingredient): much more alleviated
symptom of atopic dermatitis (naked-eye observation) ([1]; NC/Nga mice, 0.1% hirsutenone by injection, 4 weeks, vs PBS negative control): much more improved
symptom of atopic dermatitis (naked-eye observation) ([1]; NC/Nga mice, 1% hirsutenone by injection, 4 weeks, vs PBS negative control): much more improved
symptom of atopic dermatitis (naked-eye observation) ([1]; NC/Nga mice, 1% hirsutenone ointment applied to skin, 4 weeks, vs composition without active ingredient): much more remarkably improved
number of eosinophil in blood (eosinophil): more severely reduced
IgE expression level in blood (IgE): remarkably lower
IL-4 expression level (IL-4): much lower
IL-5 expression level (IL-5): much lower
IL-13 expression level (IL-13): much lower
COX-2 expression level (real-time PCR) (COX-2 [2]): significantly decreased
iNOS expression level (real-time PCR) (iNOS [3]): significantly decreased
COX-2 expression level (western blotting) (COX-2 [4]): reduced
iNOS expression level (western blotting) (iNOS [5]): reduced
